Laboratory results taken from ChEMBL document CHEMBL1122073, “Structure-activity relationships for 2-substituted imidazoles as alpha 2-adrenoceptor antagonists” (J Med Chem, 1982).
Where a name gives a salt, the structure may show the parent alone.

Assays:
[1] = target: T1, Adrenergic receptor alpha-1 (Rattus norvegicus, UniProt P15823+P23944+P43140); assay: […] activity against Alpha-1 adrenergic receptor in the epididymal portion of the rat vas deferens; type: functional, tissue-based
T1 sequence (P15823 whole entry): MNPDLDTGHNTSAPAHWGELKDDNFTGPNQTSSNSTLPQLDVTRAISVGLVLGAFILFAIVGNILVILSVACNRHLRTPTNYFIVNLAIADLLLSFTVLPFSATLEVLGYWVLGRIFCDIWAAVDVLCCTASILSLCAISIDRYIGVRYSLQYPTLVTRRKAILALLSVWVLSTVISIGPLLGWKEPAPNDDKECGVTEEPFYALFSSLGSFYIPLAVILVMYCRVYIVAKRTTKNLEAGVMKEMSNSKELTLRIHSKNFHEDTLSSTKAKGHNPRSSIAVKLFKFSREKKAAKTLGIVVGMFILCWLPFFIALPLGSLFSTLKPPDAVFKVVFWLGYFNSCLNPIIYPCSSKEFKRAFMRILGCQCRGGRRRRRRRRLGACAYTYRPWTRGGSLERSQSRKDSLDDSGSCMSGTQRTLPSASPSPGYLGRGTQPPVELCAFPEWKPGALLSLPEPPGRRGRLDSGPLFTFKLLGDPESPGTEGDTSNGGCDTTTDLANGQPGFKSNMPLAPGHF
T1 sequence (P23944 whole entry): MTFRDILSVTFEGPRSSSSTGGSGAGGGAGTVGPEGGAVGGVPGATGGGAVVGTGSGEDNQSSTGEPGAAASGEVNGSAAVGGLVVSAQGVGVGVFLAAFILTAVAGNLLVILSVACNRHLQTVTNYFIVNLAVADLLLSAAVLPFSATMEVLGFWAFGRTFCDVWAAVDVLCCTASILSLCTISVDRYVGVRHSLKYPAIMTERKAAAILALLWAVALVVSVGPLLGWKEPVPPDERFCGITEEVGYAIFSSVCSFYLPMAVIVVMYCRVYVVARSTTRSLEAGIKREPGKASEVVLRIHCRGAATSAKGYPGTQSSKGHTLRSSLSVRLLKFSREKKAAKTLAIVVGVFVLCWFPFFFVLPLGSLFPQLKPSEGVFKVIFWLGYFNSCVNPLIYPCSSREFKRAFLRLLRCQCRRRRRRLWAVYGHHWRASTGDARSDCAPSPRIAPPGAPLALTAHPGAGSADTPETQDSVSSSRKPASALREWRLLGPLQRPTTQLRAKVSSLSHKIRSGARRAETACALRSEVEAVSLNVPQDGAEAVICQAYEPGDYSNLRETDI
T1 sequence (P43140 whole entry): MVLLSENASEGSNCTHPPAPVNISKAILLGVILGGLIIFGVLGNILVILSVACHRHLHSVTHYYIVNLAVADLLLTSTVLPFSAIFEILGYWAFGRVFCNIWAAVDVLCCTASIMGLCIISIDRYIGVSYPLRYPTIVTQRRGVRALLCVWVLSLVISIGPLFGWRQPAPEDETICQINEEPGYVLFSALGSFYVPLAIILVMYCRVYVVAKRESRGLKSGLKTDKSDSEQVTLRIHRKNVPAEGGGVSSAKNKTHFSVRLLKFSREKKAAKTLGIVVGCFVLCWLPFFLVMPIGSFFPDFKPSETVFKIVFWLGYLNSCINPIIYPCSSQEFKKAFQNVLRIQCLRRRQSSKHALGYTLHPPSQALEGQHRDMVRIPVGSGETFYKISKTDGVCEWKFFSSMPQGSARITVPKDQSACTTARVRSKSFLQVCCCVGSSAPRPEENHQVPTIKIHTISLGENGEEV

[2] = target: T2, Adrenergic receptor alpha-2 (Rattus norvegicus, UniProt P22086+P19328+P22909); assay: Antagonistic activity against Alpha-2 adrenergic receptor in the prostatic portion of the rat vas deferens; type: functional, tissue-based
T2 sequence (P22086 whole entry): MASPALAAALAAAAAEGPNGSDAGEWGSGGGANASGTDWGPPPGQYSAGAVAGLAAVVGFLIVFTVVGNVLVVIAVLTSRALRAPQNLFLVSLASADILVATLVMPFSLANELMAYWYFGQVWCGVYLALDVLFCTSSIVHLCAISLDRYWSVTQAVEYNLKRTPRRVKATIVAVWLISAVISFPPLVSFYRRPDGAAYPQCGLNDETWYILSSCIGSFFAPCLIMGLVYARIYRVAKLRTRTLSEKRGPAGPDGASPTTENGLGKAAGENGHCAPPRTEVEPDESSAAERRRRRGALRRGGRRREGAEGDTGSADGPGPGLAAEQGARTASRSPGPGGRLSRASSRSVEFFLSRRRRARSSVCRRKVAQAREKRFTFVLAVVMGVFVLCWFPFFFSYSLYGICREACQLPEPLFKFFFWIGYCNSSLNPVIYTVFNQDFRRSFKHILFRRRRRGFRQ
T2 sequence (P19328 whole entry): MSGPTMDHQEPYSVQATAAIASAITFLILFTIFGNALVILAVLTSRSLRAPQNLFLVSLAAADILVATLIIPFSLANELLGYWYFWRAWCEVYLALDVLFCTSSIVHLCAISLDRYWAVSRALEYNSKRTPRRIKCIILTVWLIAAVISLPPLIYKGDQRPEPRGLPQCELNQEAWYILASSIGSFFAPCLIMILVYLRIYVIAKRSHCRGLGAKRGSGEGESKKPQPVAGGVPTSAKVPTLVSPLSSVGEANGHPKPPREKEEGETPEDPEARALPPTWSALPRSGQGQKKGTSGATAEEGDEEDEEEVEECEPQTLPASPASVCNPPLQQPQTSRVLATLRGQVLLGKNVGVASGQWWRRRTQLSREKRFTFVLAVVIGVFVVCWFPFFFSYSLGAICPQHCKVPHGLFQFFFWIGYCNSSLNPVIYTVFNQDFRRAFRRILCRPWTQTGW
T2 sequence (P22909 whole entry): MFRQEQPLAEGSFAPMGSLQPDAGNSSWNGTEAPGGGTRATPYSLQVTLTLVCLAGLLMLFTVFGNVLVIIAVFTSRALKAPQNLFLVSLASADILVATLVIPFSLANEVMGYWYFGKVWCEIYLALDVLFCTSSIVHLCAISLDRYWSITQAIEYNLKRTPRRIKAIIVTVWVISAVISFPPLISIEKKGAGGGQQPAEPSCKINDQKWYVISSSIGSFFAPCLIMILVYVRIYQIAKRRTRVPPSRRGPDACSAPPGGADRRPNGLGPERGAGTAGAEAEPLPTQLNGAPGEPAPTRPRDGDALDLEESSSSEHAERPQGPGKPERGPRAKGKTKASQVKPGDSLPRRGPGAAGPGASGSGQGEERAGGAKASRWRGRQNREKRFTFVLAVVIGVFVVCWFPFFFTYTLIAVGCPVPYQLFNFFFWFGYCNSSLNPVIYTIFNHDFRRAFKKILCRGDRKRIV

[3] = target: Adrenergic receptor alpha (Rattus norvegicus) (UniProt P15823+P23944+P43140+P22086+P19328+P22909); assay: Selectivity ratio is the […] of alfa2 and alfa1 adrenoceptors; type: protein assay
[4] = target: T1, Adrenergic receptor alpha-1; assay: Antagonistic activity against Alpha-1 adrenergic receptor in the epididymal portion of the rat vas deferens; type: functional, tissue-based
[5] = Tested for the 1-Octanol distribution coefficient determined by HPLC method (pH 7.4); type: physicochemical; details: 1-octanol/aqueous phase

| SMILES | pA2 [1] | pA2 [2] | Selectivity ratio [3] | pA2 [4] | logD [5] |
| --- | --- | --- | --- | --- | --- |
| CC(C)n1ccnc1CC1COc2ccccc2O1 (stereo unspecified) |  | 6.56 | 182 | 4.3 |  |
| Clc1cccc(Cl)c1Cn1ccnc1CC1COc2ccccc2O1 (stereo unspecified) |  | 6 | > 10 | < 5 |  |
| Cl.c1ccc2c(c1)OCC(CCc1ncc[nH]1)O2 (stereo unspecified) |  |  | 102 | 4.2 | 1.99 |
| CCn1ccnc1CC1COc2ccccc2O1.Cl (stereo unspecified) [IMILOXAN HYDROCHLORIDE] |  | 6.71 |  | < 4 | 2.31 |
| CCCn1ccnc1CC1COc2ccccc2O1 (stereo unspecified) |  |  |  |  | 2.4 |
| CCN1CCN=C1CC1COc2ccccc2O1.Cl (stereo unspecified) |  | 6.7 | 50.1 | 5 |  |
| NCC1(c2ccccc2)OCCO1 |  | 5.5 | > 3.2 | < 5 |  |
| Cl.c1ccc2c(c1)OCC(c1ncc[nH]1)O2 (stereo unspecified) |  | 5.6 | > 39.8 | < 4 | 1.76 |
| c1ccc2c(c1)OCC(C1=NCCN1)O2 (stereo unspecified) [IDAZOXAN HYDROCHLORIDE] |  |  |  |  | 0.33 |

Next, values leading:

| pA2 [1] | pA2 [2] | Selectivity ratio [3] | pA2 [4] | logD [5] | SMILES |
| --- | --- | --- | --- | --- | --- |
| 5 | 6.58 | 38 |  |  | COc1cccc(Cn2ccnc2CC2COc3ccccc3O2)c1.Cl (stereo unspecified) |
|  |  | 74.1 | 4.33 | 1.93 | Cl.Cn1ccnc1CC1COc2ccccc2O1 (stereo unspecified) |
|  | 5.51 | > 3.2 | < 5 | > 2.5 | Cl.c1ccc(-c2c[nH]c(CC3COc4ccccc4O3)n2)cc1 (stereo unspecified) |
|  |  |  |  | 3.29 | c1ccc2c(c1)OCC(Cc1nc3ccccc3[nH]1)O2 (stereo unspecified) |
|  | 7.4 |  |  |  | c1ccc2c(c1)OCC(CN1CCCCC1)O2 (stereo unspecified) [PIPEROXAN] |
|  | 5.4 | > 2.5 | < 5 |  | Cl.N=C(N)CC1COc2ccccc2O1 (stereo unspecified) |
|  | 6.84 | > 219 | < 4.5 |  | CCCCn1ccnc1CC1COc2ccccc2O1.Cl (stereo unspecified) |
| 5 | 6.84 | 69.2 |  | > 2.5 | Cl.c1ccc(Cn2ccnc2CC2COc3ccccc3O2)cc1 (stereo unspecified) |
|  | 7 | 100 | 5 | 0.28 | Cl.c1ccc2c(c1)OCC(CC1=NCCN1)O2 (stereo unspecified) |
|  |  |  |  | 1.92 | c1ccc2c(c1)OCC(Cc1ncc[nH]1)O2 (stereo unspecified) |
